For one experiment, the system named is M. tuberculosis H37Rv. As to the kind of experiment: MIC, microbroth dilution. It counts as cell-based. The settings on record: Mycobacterium tuberculosis.
For experiment [1], the system named is M. tuberculosis ATCC 35820. It counts as cell-based, Mycobacterium tuberculosis.
Experiment [2] has as its system M. tuberculosis H37Rv-HL-14. It counts as cell-based, Mycobacterium tuberculosis.
Experiment [3] has as its system M. tuberculosis ATCC 35822. It is filed as cell-based, Mycobacterium tuberculosis.
The subject of experiment [4] is M. tuberculosis H37Rv-HL-15. It counts as cell-based, Mycobacterium tuberculosis.
For experiment [5], the system named is M. tuberculosis ATCC 35838. It is filed as cell-based, Mycobacterium tuberculosis.
The test system of experiment [6] is M. tuberculosis ATCC 35837. As to the kind of experiment: microbe, parasite or virus in culture. It counts as cell-based. The settings on record: Mycobacterium tuberculosis, ATCC35837.

≈ marks a conversion by molar mass, not a printed value.

`CN[C@@H]1[C@H](O)[C@H](NC)[C@H]2O[C@@]3(O)C(=O)C[C@@H](C)O[C@H]3O[C@@H]2[C@H]1O` [Spectinomycin, spectinomycin]: the MIC was 100 µg/mL (≈ 301 µM) in the experiment on M. tuberculosis H37Rv; 200 µg/mL (≈ 602 µM) in experiment [1]; >200 µg/mL in experiment [2]; 100 µg/mL (≈ 301 µM) in experiment [3]; >200 µg/mL in experiment [4]; 100 µg/mL (≈ 301 µM) in experiment [5]. The compound also registered an MIC in experiment [6] of 100 µg/mL (≈ 301 µM).
Take `[H]/N=C(/N)N[C@H]1[C@H](O)[C@@H](O)[C@H](O[C@@H]2O[C@@H](C)[C@](O)(C=O)[C@H]2O[C@@H]2O[C@@H](CO)[C@H](O)[C@@H](O)[C@@H]2NC)[C@@H](N/C(N)=N\[H])[C@@H]1O` [Streptomycin, streptomycin]: the MIC was 1.6 µg/mL (≈ 2.75 µM) against M. tuberculosis H37Rv; >200 µg/mL in experiment [1]; 1.6 µg/mL (≈ 2.75 µM) in experiment [2]; 1.6 µg/mL (≈ 2.75 µM) in experiment [3]; 1.6 µg/mL (≈ 2.75 µM) in experiment [4]; 1.6 µg/mL (≈ 2.75 µM) in experiment [5]. For the same compound, the MIC in experiment [6] worked out at 1.6 µg/mL (≈ 2.75 µM).
Take `CC[C@@H](CO)NCCN[C@@H](CC)CO` [Ethambutol]: the MIC in experiment [6] was > 25 µg/mL.

For the origin of these results see PMC3972818 (Nature medicine, 2014).
